# Data as given in paper PMC3475717, “A Spiroligomer α-Helix Mimic That Binds HDM2, Penetrates Human Cells and Stabilizes HDM2 in Cell Culture” (PLoS ONE, 2012).
# Values joined by “and” are separate entries in the source; they are usually repeats but may differ in a detail not shown here. Identical values can stand only once. “Also recorded” adds a separate entry of the source.
# What was measured:
# [1] = tested on: HDM2, p53Y220C and p21 in Huh7 cells; assay: Western blot analysis of HDM2, p53 and p21; assay type: cell-based, human
# Protocol: Huh7 cells were incubated with spiroligomer 1 and Nutlin-3 in media at 2, 5, 10 and 20 µM for 17 hours at 37°C. […] Huh7 cells were then incubated with 1 at 15 µM and cells were harvested at 2, 4, 6, 8, 12 and 24 hours. […]
# Cell Culture and Treatment. HepG2 (expressing wild-type p53) and Huh7 (expressing mutant p53) cell lines were purchased from the American Type Culture Collection (ATCC) and cultured as monolayers in Dulbecco’s modified Eagle’s medium (DMEM) (Invitrogen) supplemented with 100 mM nonessential amino acid solution, 100 mM sodium pyruvate, 100 U/mL penicillin, 100 μg/mL streptomycin, and 10% heat inactivated fetal bovine serum (FBS) (all from Hyclone).
# Cells were maintained at 37° C and 5% CO2 and were treated with media that contained 0.5%
# FBS. Nutlin-3 (Sigma) was dissolved in 0.01% DMSO (Sigma).
# Both nutlin-3 and spiroligomers were added into the medium for final concentrations of 2 µM, 5 µM, 10 µM and 20 µM for 24 hours. For the western blot experiments detailed below, the time length for incubation with bis-peptide was 17 hours. […]
# Western Blotting. For protein extraction, cells were lysed in cell lysis buffer (Cell Signaling) with a protease inhibitor cocktail for 20 minutes on ice. Protein extracts (50 μg) were separated by SDS-PAGE electrophoresis, transferred to nitrocellulose membranes (Schleicher & Schuell), and incubated overnight with primary antibodies to p53, HDM2, p21, and β-actin (all from Santa Cruz Biotechnology). The blots were developed using ECL plus detection system (Amersham Biosciences) and exposed to Kodak imaging films (Kodak BioMax). Images were quantified using ImageJ software (NIH).
# Figure S.5. Detection of bis-peptide 1 and Nutlin-3 in HepG2 (left) and Huh7 (right) cells. The concentration of each compound is given in μM and the three proteins (HDM2, p53 and p21) bands are […]
# [2] = target: T1, HDM2_25–117 (Homo sapiens, UniProt Q00987); assay: direct binding fluorescence polarization assay; details: for fluorescence polarization: oligomer 10 nM, three independent replicates
# T1 construct: unnamed fusion partner ('fusion protein'); made in house; host or cells: E. coli BL21
# T1 sequence (Q00987 25-117): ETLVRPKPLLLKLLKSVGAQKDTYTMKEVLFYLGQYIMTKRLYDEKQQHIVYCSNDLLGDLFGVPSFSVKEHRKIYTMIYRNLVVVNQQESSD
# Protocol: To measure the binding affinity of the functionalized spiroligomers to HDM2 we utilized a direct binding fluorescence polarization assay. The binding of the fluorescein labeled spiroligomers was measured at 10 nM spiroligomer in the presence of varying concentrations of HDM2_25–117 [31]. […] The initial screen of spiroligomers including 3–7 was carried out on the spiroligomer backbone containing all (S) stereochemistry to identify appropriate functional groups to mimic the side chains of Phe19, Trp23 and Leu26 of the p53 helix.
# HDM2 Protein Expression. A fusion protein consisting of residues 1-140 (the plasmid was a generous gift from the lab of Neil Zondlo, University of Delaware) was prepared by over-expression.4 Plasmids were used to transform chemically competent E-coli BL21 Cells (Novagen), and a single colony was used to inoculate 2×4 mL LB media culture tubes containing 0.1 mg/mL ampicillin, at 37 °C overnight. These overnight cultures were used to inoculate a 1 L culture of TB media containing 0.1 mg/ml ampicillin. The culture was incubated at 37 °C with shaking at 250 rpm until the optical density at 600 nm reached to 0.9 absorbance units. Protein overexpression was then induced by the addition of 20% isopropyl β-D-thiogalactoside (IPTG) to 0.4 mM final concentration. The culture was then grown for additional 5 hours at 30 °C. Then cells were harvested at 4 °C by centrifugation at 4500 rpm for 20 min.
# The cell pellet was resuspended in chilled 1x Binding Buffer (0.5 M NaCl, 20 mMTris-Hcl, 5 mM imidazole, pH 7.9), frozen and stored at -80 °C until protein purification.
# Protein Purification. The frozen cell pellet was thawed at 4 °C and lysed by sonication for 2 minutes with 10 sec on and 20 sec off. Cell debris was pelleted by centrifugation for 30 min at 15000 g, 4 °C and the supernatant was filtered through a 0.2 μm syringe filter. A column was prepared using 2 mL Novagen His-Bind suspended resin and resin was washed with 3 volumes DI water. The flow rate maintained was not more than 0.5 ml/min throughout the purification.
# The resin was charged with 5 vol 1x Charge Buffer (50 mM NiSO4) and then equilibrated with 3 vol 1x Binding Buffer (5 mM imidazole). After loading the column with prepared extract, the resin was washed with 10 vol 1x Binding Buffer and then with 6 vol 1x Wash Buffer (10 mM imidazole). Protein was then eluted with 6 vol 1x Elution Buffer (1 M imidazole). The eluate was captured in fractions of 0.5 ml. Fractions were assayed with Coomasie blue and desired fractions were combined and dialyzed using spectra/por 6 Dialysis Membranes of 10,000 MWCO (Spectrum Laboratories) in PBS (pH 7.4, 5 mM EDTA and 0.5 mM DTT) for overnight.
# The resulting protein was characterized by SDS-PAGE (4-20% gradient gel) for purity analysis and concentrations were measured by UV analysis.
# Fresh protein was used immediately for protein binding experiments. […]
# Direct Binding Fluorescence Polarization Experiments. Fluorescence polarization experiments were undertaken to assess the ability of spiroligomers to bind HDM2, a protein with hydrophobic cleft that binds the p53 N-terminal helical domain. Fluoresceinated oligomers (conc. of 10 nM) were incubated for 30 minutes at room temperature with sequential dilutions of […]
# [3] = Huh7, 2, 5, 10 and 20 µM, 17 hours, 37°C
smiles,measurement,setting,value
CC(C)CN1C(=O)[C@@H]2C[C@@]3(CN2C(=O)[C@@]12C[C@H]1C(=O)N(Cc4ccc(Cl)c(Cl)c4)[C@]4(C[C@@H]5C(=O)N[C@@H](CCc6ccccc6)C(=O)N5C4)C(=O)N1C2)NC(=O)[C@@H](CCCCNC(=S)Nc1ccc2c(c1)C(=O)OC21c2ccc(O)cc2Oc2cc(O)ccc21)NC3=O [Compound 1],p53Y220C levels with time,"[1]; Huh7, 15 µM, harvested at 2, 4, 6, 8, 12 and 24 hours",no change in p53Y220C levels with time; also recorded: no effect on p53Y220C levels
same,p21 levels,[1]; [3],did not change
same,p53Y220C levels,[1]; [3],did not change
same,HDM2 levels relative to control cells,"[1]; Huh7, 2, 5, 10 and 20 µM, 17 hours, 37°C, dose-dependent",more than 30 fold
same,increase in affinity for HDM2,"[2]; 1 versus 9, differing only in the stereocenter of the lysine residue",~17 fold
same,fluorescence polarization,[2]; [hDM2] 0.08106232 nM,68. 58 millipolarization and 68. 27 millipolarization and 70. 47 millipolarization
same,fluorescence polarization,[2]; [hDM2] 0.1621246 nM,65. 92 millipolarization and 65. 99 millipolarization and 65. 14 millipolarization
same,fluorescence polarization,[2]; [hDM2] 0.3242493 nM,75. 62 millipolarization and 76. 93 millipolarization and 62. 45 millipolarization
same,fluorescence polarization,[2]; [hDM2] 0.6484985 nM,76. 88 millipolarization and 65. 12 millipolarization and 66. 54 millipolarization
same,fluorescence polarization,[2]; [hDM2] 1.296997 nM,74. 46 millipolarization and 61. 79 millipolarization and 70. 28 millipolarization
same,fluorescence polarization,[2]; [hDM2] 2.593994 nM,69. 71 millipolarization and 64. 6 millipolarization and 67. 34 millipolarization
same,fluorescence polarization,[2]; [hDM2] 5.187988 nM,68. 52 millipolarization and 66. 82 millipolarization and 65. 52 millipolarization
same,fluorescence polarization,[2]; [hDM2] 10.37598 nM,78. 3 millipolarization and 73. 95 millipolarization and 76. 62 millipolarization
same,fluorescence polarization,[2]; [hDM2] 20.75195 nM,75. 45 millipolarization and 72. 99 millipolarization and 76. 91 millipolarization
same,fluorescence polarization,[2]; [hDM2] 41.50391 nM,82. 2 millipolarization and 90. 13 millipolarization and 83. 56 millipolarization
same,fluorescence polarization,[2]; [hDM2] 83.00781 nM,90. 07 millipolarization and 92. 68 millipolarization and 90. 31 millipolarization
same,fluorescence polarization,[2]; [hDM2] 166.0156 nM,123. 93 millipolarization and 122. 78 millipolarization and 128. 68 millipolarization
same,fluorescence polarization,[2]; [hDM2] 332.0313 nM,176. 96 millipolarization and 168. 11 millipolarization and 165. 21 millipolarization
same,fluorescence polarization,[2]; [hDM2] 664.0625 nM,219. 16 millipolarization and 207. 64 millipolarization and 219. 81 millipolarization
same,fluorescence polarization,[2]; [hDM2] 1328.125 nM,249. 64 millipolarization and 254. 41 millipolarization and 260. 31 millipolarization
same,fluorescence polarization,[2]; [hDM2] 2656.25 nM,276. 63 millipolarization and 280. 28 millipolarization and 279. 87 millipolarization
same,fluorescence polarization,[2]; [hDM2] 5312.5 nM,283. 09 millipolarization and 283. 22 millipolarization and 294. 56 millipolarization
same,fluorescence polarization,[2]; [hDM2] 10625 nM,279. 23 millipolarization and 291. 88 millipolarization and 291. 17 millipolarization
same,fluorescence polarization,[2]; [hDM2] 21250 nM,289. 83 millipolarization and 291. 58 millipolarization and 284. 9 millipolarization
same,fluorescence polarization,[2]; [hDM2] 42500 nM,280. 74 millipolarization and 287. 71 millipolarization and 288. 59 millipolarization
same,difference in binding to HDM2,[2]; epimers 12 and 1,four-fold
same,Kd,"[2]; fluorescein labeled ligand at 10 nM, varying HDM2, read-out: Kd (HDM2)",400 nM
